Source: ChEMBL document CHEMBL6114971, “Design, synthesis and biological evaluation of benzo[b]thiophene analogues as novel ferroptosis inhibitor that inhibit fibrosarcoma cell proliferation” (Bioorg Med Chem, 2025)

Columns and labels:
Assay type in all cases: functional, cell-based
4T1 = test: Antiproliferative activity against mouse 4T1 cells measured after 72 hrs by MTT assay; conditions: 4T1, 72 h
HT-1080 = test: Antiproliferative activity against human HT-1080 cells measured after 72 hrs by MTT assay; conditions: HT-1080, 72 h
A549 = test: Antiproliferative activity against human A549 cells measured after 72 hrs by MTT assay; conditions: A549, 72 h
MGC-803 = test: Antiproliferative activity against human MGC-803 cells measured after 72 hrs by MTT assay; conditions: MGC-803, 72 h

Row | IC50 (4T1) | IC50 (HT-1080) | IC50 (A549) | IC50 (MGC-803) | SMILES
1 | > 20 µM | 15 µM | 16.7 µM | 7.19 µM | COc1ccc(N(Cc2c[nH]c3ccccc23)C(=O)CCl)cc1OC
2 | 15.8 µM | 12.4 µM | > 20 µM | 11.7 µM | COc1ccc(N(Cc2c[nH]c3ccccc23)C(=O)CCl)cc1
3 | 12.1 µM | 6.06 µM | > 20 µM | 16.7 µM | O=C(CCl)N(Cc1ccoc1)c1ccc(F)cc1
4 | > 20 µM | 7.86 µM | > 20 µM | 13.2 µM | O=C(CCl)N(Cc1c[nH]c2ccccc12)c1ccccc1
5 | > 20 µM | 11.2 µM | > 20 µM | 10.3 µM | O=C(CCl)N(Cc1csc2ccccc12)c1ccccc1
6 | > 20 µM | > 20 µM | > 20 µM | > 20 µM | Cc1onc(C(=O)N(Cc2csc3ccccc23)c2ccccc2)c1[N+](=O)[O-]
7 | 10.2 µM | > 20 µM | > 20 µM | > 20 µM | Cc1onc(C(=O)N(Cc2csc3ccccc23)c2ccc(F)cc2)c1[N+](=O)[O-]
8 | > 20 µM | 7.21 µM | 16 µM | 9.09 µM | O=C(CCl)N(Cc1c[nH]c2ccccc12)c1ccc(F)cc1
9 | 17.8 µM | 13.6 µM | > 20 µM | 12 µM | O=C(CCl)N(Cc1cc2ccccc2s1)c1cccc(C(F)(F)F)c1
10 | 5.97 µM | 4.21 µM | > 20 µM | > 20 µM | COc1cc(N(Cc2ccoc2)C(=O)CCl)cc(OC)c1OC
11 | 14.1 µM | 14.2 µM | > 20 µM | > 20 µM | O=C(CCl)N(Cc1ccoc1)c1ccccc1
12 | 8.52 µM | > 20 µM | > 20 µM | > 20 µM | O=C(CCl)N(Cc1ccccc1)Cc1csc2ccccc12
13 | > 20 µM | 12.3 µM | > 20 µM | 13.4 µM | O=C(CCl)N(Cc1csc2ccccc12)c1ccc(F)cc1
14 | > 20 µM | 10.4 µM | > 20 µM | 7.09 µM | O=C(CCl)N(Cc1cc2ccccc2s1)c1ccc(F)cc1
15 | > 20 µM | 4.22 µM | 15.2 µM | 2.42 µM | COc1ccc(N(Cc2csc3ccccc23)C(=O)CCl)cc1OC
16 | 12.4 µM | 9.26 µM | > 20 µM | 7.32 µM | O=C(CCl)N(Cc1cc2ccccc2[nH]1)c1ccc(F)cc1
17 | > 20 µM | 14 µM | > 20 µM | 16.9 µM | COc1ccc(N(Cc2csc3ccccc23)C(=O)CCl)cc1
18 | 7.34 µM | 4.73 µM | > 20 µM | 19.8 µM | O=C(CCl)N(Cc1ccsc1)c1ccccc1
19 | 7.77 µM | 3.99 µM | > 20 µM | > 20 µM | COc1ccc(N(Cc2csc3ccccc23)C(=O)CCl)cc1Cl
20 | 12.9 µM | > 20 µM | 18.9 µM | > 20 µM | COc1cc(N(Cc2ccc3ccccc3n2)C(=O)c2noc(C)c2[N+](=O)[O-])cc(OC)c1OC
21 | 14.4 µM | > 20 µM | > 20 µM | > 20 µM | COc1cc(N(Cc2ccsc2)C(=O)c2noc(C)c2[N+](=O)[O-])cc(OC)c1OC
22 | > 20 µM | 11.1 µM | 19.3 µM | 7.95 µM | O=C(CCl)N(Cc1csc2ccccc12)c1cccc(C(F)(F)F)c1
23 | > 20 µM | 8.98 µM | 16.9 µM | 1.8 µM | COc1ccc(N(Cc2cc3ccccc3s2)C(=O)CCl)cc1OC
24 | 10.2 µM | > 20 µM | > 20 µM | > 20 µM | COc1cc(N(Cc2csc3ccccc23)C(=O)c2noc(C)c2[N+](=O)[O-])cc(OC)c1OC

Row | SMILES | IC50 (4T1) | IC50 (HT-1080) | IC50 (A549) | IC50 (MGC-803)
25 | CCOc1ccccc1-n1c(C(C)N2CCN(C(=O)COc3ccc(Cl)cc3)CC2)nc2ccccc2c1=O (stereo not given) [ERASTIN] | 12.7 µM | 3.54 µM | > 20 µM | > 20 µM
